From US11498921B1, “Pyrimidine or pyridine compounds, preparation method therefor and pharmaceutical uses thereof” (INVENTISBIO CO., LTD., priority 2014, dated 2022)
Where a name gives a salt, the structure may show the parent alone. Values belong to the compound of their own block, whether it stands above or below them.

How the values were obtained:
Assay type in all cases: cell-based
[1] = system: NCI-H1975 cells (T790M and L858R EGFR mutations); assay: Cell growth inhibition (Cell Titer-Glo), NCI-H1975; conditions: Homo sapiens, 72 hours drug treatment, 0.03 nM to 100 nM
Experimental: (§1) Experiment of Cell Growth Inhibition
(§2) The LoVo cell line is a wild-type EGFR human colon adenocarcinoma cell, and is grown in F-12K medium (GIBCO) containing 10% FBS. NCI-H2073 cell line is a wild-type EGFR human non-small cell lung cancer cell and grown in ACL-4 medium containing 10% FBS. The growth rate of NCI-H1975, LoVo and NCI-H2073 cells was detected by Cell Titer-Glo luminescence activity assay (Promega #G7572).
(§3) Briefly, trypsin was used for digesting cells in the logarithmic growth phase. 96-well plates were seeded with 50,000 Lovo or NCI-H2073 cells, 2500-3000 NCI-H1975 cells per well and provided with blank control wells containing only nutrient solution without inoculated cell, and the plates were incubated in a humidified incubator with 5% CO2 at 37° C. […] The concentration of test drug in NCI-H1975 cells was from 0.03 nM to 100 nM, and that in LoVo and NCI-H2073 cells was from 3 nM to 10 μM. The cell culture medium containing the different compounds was then added to a 96-well cell plate in which one cell control well comprising cell culture medium only containing DMSO was provided. After a drug treatment for 72 hours, the cell plates were removed from the incubator and allowed to stand at room temperature for 30 minutes. Next, Cell Titer-Glo reagent was added to the wells and the 96-well cell plate was shaken at room temperature for 10 minutes to induce cell lysis. The 96-well cell plate was placed on the bench for 2 minutes to stabilize the luminescence signal. Finally, the 96-well cell plate was placed in an EnVision Multi-labeled Microplate Reader (PerkinElmer), and the signal was read with an integral time of 0.5 seconds.
(§4) Formula: Percentage of cell growth inhibition %=(maximum signal−compound signal)/(maximum signal−minimum signal)*100%
(§5) The maximal signal was obtained from the cell control well which were treated with the DMSO solution having no any compound;
(§6) The compound signal was obtained from the drug-treated cell wells to which the compound was added;
(§7) The minimum signal was obtained from a blank control well to which no cells and only nutrient solution was added.

[2] = system: LoVo cells (wild-type EGFR human colon adenocarcinoma); assay: Cell growth inhibition (Cell Titer-Glo), LoVo; conditions: 72 hours drug treatment, 3 nM to 10 μM
Experimental: as §1, §2, §3, §4, §5, §6, §7

[3] = system: NCI-H2073 cells (wild-type EGFR human non-small cell lung cancer); assay: Cell growth inhibition (Cell Titer-Glo), NCI-H2073; conditions: 72 hours drug treatment, 3 nM to 10 μM
Experimental: as §1
as §2, with “The compounds that were preferentially targeted for EGFR targeting certain mutations and relatively weak in wild-type EGFR were identified by determining the growth of cells. The NCI-H1975 cell line is a human non-small cell lung cancer cell containing T790M and L858R EGFR mutations, and the cell is grown in RPMI-1640 medium (GIBCO) containing 10% fetal bovine serum (FBS). The LoVo” for “The LoVo”
Briefly, trypsin was used for digesting cells in the logarithmic growth phase. 96-well plates were seeded with 50,000 Lovo or NCI-H2073 cells, 2500-3000 NCI-H1975 cells per well and provided with blank control wells containing only nutrient solution without inoculated cell, and the plates were incubated in a humidified incubator with 5% CO2 at 37° C. After 24 hours, the DMSO solution of the different compounds was diluted with a cell culture medium at 3.16 times per time to eight different concentrations from high to low levels. The concentration of test drug in NCI-H1975 cells was from 0.03 nM to 100 nM, and that in LoVo and NCI-H2073 cells was from 3 nM to 10 μM. The cell culture medium containing the different compounds was then added to a 96-well cell plate in which one cell control well comprising cell culture medium only containing DMSO was provided. After a drug treatment for 72 hours, the cell plates were removed from the incubator and allowed to stand at room temperature for 30 minutes. Next, Cell Titer-Glo reagent was added to the wells and the 96-well cell plate was shaken at room temperature for 10 minutes to induce cell lysis. The 96-well cell plate was placed on the bench for 2 minutes to stabilize the luminescence signal. Finally, the 96-well cell plate was placed in an EnVision Multi-labeled Microplate Reader (PerkinElmer), and the signal was read with an integral time of 0.5 seconds.
as §4, §5, §6, §7

- IC50 [1]: 36 nM
- IC50 [2]: 4180 nM
- IC50 [3]: > 10000 nM
Compound: C=CC(=O)Nc1cc(Nc2nccc(-n3ccc(=O)c4ccccc43)n2)c(OC)cc1N(C)CCN(C)C [56. (HCl)n]

- IC50 [1]: 1.4 nM
- IC50 [2]: 4070 nM
- IC50 [3]: 110 nM
Compound: [2H]C([2H])([2H])Oc1cc(N(C)CCN(C)C)c(NC(=O)C=C)cc1Nc1nccc(-n2c(=O)n(C)c3ccccc32)n1 [60. (HCl)n]

- IC50 [1]: 6.4 nM
- IC50 [3]: 170 nM
Compound: C=CC(=O)Nc1cc(Nc2nccc(-c3cn(S(=O)(=O)C(C)C)c4ccccc34)n2)c(OC)cc1N(C)CCN(C)C [102. (MsOH)2]

- IC50 [1]: 5.5 nM
- IC50 [3]: 193 nM
Compound: C=CC(=O)Nc1cc(Nc2nccc(-c3cn(S(=O)(=O)CC)c4ccccc34)n2)c(OC)cc1N(C)CCN(C)C [101. (MsOH)2]

- IC50 [1]: 0.4 nM
- IC50 [3]: 43 nM
Compound: [2H]C([2H])([2H])N(CCN(C)C)c1cc(OC)c(Nc2nccc(-n3c(=O)n(CC)c4ccccc43)n2)cc1NC(=O)C=C [68. (MsOH)2]

- IC50 [1]: 0.4 nM
- IC50 [3]: 64 nM
Compound: [2H]C([2H])([2H])N(CCN(C)C)c1cc(OC)c(Nc2nccc(-c3cn(S(C)(=O)=O)c4ccccc34)n2)cc1NC(=O)C=C [71. (MsOH)2]

- IC50 [1]: 4.8 nM
- IC50 [3]: 410 nM
Compound: [2H]C([2H])([2H])N(CCN(C)c1cc(OC)c(Nc2nccc(-n3cc(C)c4ccccc43)n2)cc1NC(=O)C=C)C([2H])([2H])[2H] [63. (HCl)n]

- IC50 [1]: 4.7 nM
- IC50 [3]: 155 nM
Compound: C=CC(=O)Nc1cc(Nc2nccc(-n3c(=O)n(C(C)C)c4ccccc43)n2)c(OC)cc1N(C)CCN(C)C [106. (MsOH)2]

- IC50 [1]: 100 nM
- IC50 [3]: 5420 nM
Compound: C=CC(=O)Nc1cc(Nc2nccc(-n3cc(S(C)(=O)=O)c4ccccc43)n2)c(OC)cc1N(C)CCN(C)C [112. (MsOH)2]

- IC50 [1]: 20.5 nM
- IC50 [2]: > 10000 nM
- IC50 [3]: > 10000 nM
Compound: C=CC(=O)Nc1cc(Nc2nccc(-c3cn(C)c4ccccc34)n2)c(OC)cc1N1CC(N2CCC2)C1 [Example 22]

- IC50 [1]: 15.7 nM
- IC50 [3]: 543 nM
Compound: C=CC(=O)Nc1cc(Nc2nccc(-c3cn(CC(F)F)c4ccccc34)n2)c(OC)cc1N(C)CCN(C)C [105. (MsOH)2]

- IC50 [1]: 1.3 nM
- IC50 [2]: 4180 nM
- IC50 [3]: 120 nM
Compound: [2H]C([2H])([2H])N(CCN(C)C)c1cc(OC)c(Nc2nccc(-n3c(=O)n(C)c4ccccc43)n2)cc1NC(=O)C=C [59. (HCl)n]

- IC50 [1]: 26.5 nM
- IC50 [3]: 595 nM
Compound: C=CC(=O)Nc1cc(Nc2nccc(-c3nn(C(C)C)c4ccccc34)n2)c(OC)cc1N(C)CCN(C)C [113. (MsOH)2]

- IC50 [1]: 13.1 nM
- IC50 [3]: 300 nM
Compound: C=CC(=O)Nc1cc(Nc2nccc(-c3cn(S(=O)(=O)C4CC4)c4ccccc34)n2)c(OC)cc1N(C)CCN(C)C [103. (MsOH)2]

- IC50 [1]: 2.7 nM
- IC50 [3]: 282 nM
Compound: [2H]C([2H])([2H])N(CCN(C)c1cc(OC)c(Nc2nccc(-c3cn(CC)c4ccccc34)n2)cc1NC(=O)C=C)C([2H])([2H])[2H] [72. (MsOH)3]

- IC50 [1]: 5.9 nM
- IC50 [3]: 253 nM
Compound: C=CC(=O)Nc1cc(Nc2nccc(-n3c(=O)n(CC(F)(F)F)c4ccccc43)n2)c(OC)cc1N(C)CCN(C)C [108. (MsOH)2]

- IC50 [1]: 6 nM
- IC50 [3]: 310 nM
Compound: [2H]C([2H])([2H])N(CCN(C)c1cc(OC)c(Nc2nccc(-n3nnc4ccccc43)n2)cc1NC(=O)C=C)C([2H])([2H])[2H] [64. (HCl)n]

- IC50 [1]: 14.4 nM
- IC50 [3]: 463 nM
Compound: [2H]C([2H])([2H])N(CCN(C)C)c1cc(OC)c(Nc2nccc(-n3nnc4ccccc43)n2)cc1NC(=O)C=C [74. (MsOH)3]

- IC50 [1]: 4.5 nM
- IC50 [3]: 268 nM
Compound: C=CC(=O)Nc1cc(Nc2nccc(-n3c(=O)n(CC(F)F)c4ccccc43)n2)c(OC)cc1N(C)CCN(C)C [109. (MsOH)2]

- IC50 [1]: 81.7 nM
- IC50 [3]: 4100 nM
Compound: C=CC(=O)Nc1cc(Nc2nccc(-c3cncc4ccccc34)n2)c(OC)cc1N(C)CCN(C)C [Example 67]

- IC50 [1]: 2.9 nM
- IC50 [3]: 103 nM
Compound: C=CC(=O)Nc1cc(Nc2nccc(N3c4ccccc4N(C)S3(=O)=O)n2)c(OC)cc1N(C)CCN(C)C [110. (MsOH)2]

- IC50 [1]: 0.5 nM
- IC50 [3]: 46 nM
Compound: [2H]C([2H])([2H])N(CCN(C)c1cc(OC)c(Nc2nccc(-c3cn(S(C)(=O)=O)c4ccccc34)n2)cc1NC(=O)C=C)C([2H])([2H])[2H] [70. (MsOH)2]

Further lines, the compound ahead of its results:

Compound: C=CC(=O)Nc1cc(Nc2nccc(-c3cn(C)c4ccccc34)n2)c(OC)cc1N(CC)CCN(C)C [9. (MsOH)2]
- IC50 [1]: 13 nM
- IC50 [2]: 2060 nM
- IC50 [3]: 1130 nM

Compound: C=CC(=O)Nc1cc(Nc2nccc(-n3c(=O)[nH]c4ccccc43)n2)c(OC)cc1N(C)CCN(C)C [39. (MsOH)3]
- IC50 [1]: 0.8 nM
- IC50 [2]: 3390 nM
- IC50 [3]: 18 nM

Compound: C=CC(=O)Nc1cc(Nc2nccc(N3CC(C)(C)c4ccccc43)n2)c(OC)cc1N(C)CCN(C)C [37. (MsOH)3]
- IC50 [1]: 8.1 nM
- IC50 [2]: 4660 nM
- IC50 [3]: 260 nM

Compound: C=CC(=O)Nc1cc(Nc2nccc(-c3cn(C)c4ccccc34)n2)c(OC)cc1N(C)CCN1CCC(O)C1 (stereo not drawn) [53. (HCl)n]
- IC50 [1]: 14 nM
- IC50 [2]: 2860 nM
- IC50 [3]: 690 nM

Compound: C=CC(=O)Nc1cc(Nc2nccc(-n3nnc4ccccc43)n2)c(OC)cc1N(C)CCN(C)C [2. (MsOH)3]
- IC50 [1]: 6.1 nM
- IC50 [2]: 2300 nM
- IC50 [3]: 474 nM

Compound: C=CC(=O)Nc1cc(Nc2nccc(-n3cc(C)c4ccccc43)n2)c(OC)cc1N(C)CCN(C)C [4. (MsOH)3]
- IC50 [1]: 8.6 nM
- IC50 [2]: 2570 nM
- IC50 [3]: 500 nM

Compound: C=CC(=O)Nc1cc(Nc2nccc(-c3cn(CC)c4ccccc34)n2)c(OC)cc1N(C)CCN(C)C [48. (HCl)n]
- IC50 [1]: 5.5 nM
- IC50 [2]: 2340 nM
- IC50 [3]: 435 nM

Compound: C=CC(=O)Nc1cc(Nc2nccc(-c3cn(C)c4ccccc34)n2)c(OC)cc1OCCN(C)C [29. (MsOH)2]
- IC50 [1]: 13 nM
- IC50 [2]: 2520 nM
- IC50 [3]: 2520 nM

Compound: C=CC(=O)Nc1cc(Nc2nccc(-c3cn(C)c4ccccc34)n2)c(OC)cc1N(C)CCN(C)CC [7. (MsOH)3]
- IC50 [1]: 9.9 nM
- IC50 [2]: 2170 nM
- IC50 [3]: 760 nM

Compound: C=CC(=O)Nc1cc(Nc2nccc(-c3cn(C)c4ccccc34)n2)c(OC)cc1N(C)CCN(CC)CC [8. MsOH]
- IC50 [1]: 113 nM
- IC50 [2]: 1940 nM
- IC50 [3]: 870 nM

Compound: C=CC(=O)Nc1cc(Nc2nccc(-n3c(=O)n(C)c4ccccc43)n2)c(OC)cc1N(C)CCN(C)C [40. (MsOH)3]
- IC50 [1]: 1.3 nM
- IC50 [2]: 6090 nM
- IC50 [3]: 183 nM

Compound: C=CC(=O)Nc1cc(Nc2nccc(N3CC4(CC4)c4ccccc43)n2)c(OC)cc1N(C)CCN(C)C [38. (HCl)n]
- IC50 [1]: 8.2 nM
- IC50 [2]: 2990 nM
- IC50 [3]: 476 nM

Compound: C=CC(=O)Nc1cc(Nc2nccc(N3CCOc4ccccc43)n2)c(OC)cc1N(C)CCN(C)C [36. (MsOH)3]
- IC50 [1]: 15 nM
- IC50 [2]: 4330 nM
- IC50 [3]: 410 nM

Compound: C=CC(=O)Nc1cc(Nc2nccc(-c3nn(CC)c4ccccc34)n2)c(OC)cc1N(C)CCN(C)C [51. (HCl)n]
- IC50 [1]: 2.6 nM
- IC50 [2]: 1280 nM
- IC50 [3]: 325 nM

Compound: C=CC(=O)Nc1cc(Nc2nccc(-c3nc(C)c4ccccn34)n2)c(OC)cc1N(C)CCN(C)C [52. (HCl)n]
- IC50 [1]: 5.2 nM
- IC50 [2]: 6100 nM
- IC50 [3]: 220 nM

Compound: C=CC(=O)Nc1cc(Nc2nccc(-n3[nH]c(=O)c4ccccc43)n2)c(OC)cc1N(C)CCN(C)C [50. (HCl)n]
- IC50 [1]: 9.2 nM
- IC50 [2]: > 10000 nM
- IC50 [3]: 290 nM
